Among the data in PubChem BioAssay (NCI) are GI50, TGI and outcome values, retold here.

Test systems include KM12 colon; SK-MEL-28 melanoma; MDA-MB-435; SR leukemia; HCT-15 colon; NCI-H460 lung; M14 melanoma; DU-145 prostate; SK-MEL-2 melanoma.
Common to all, as to experiment: growth of human tumour cells (NCI), 48 h

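In this assay, cells in 96-well plates receive the compound at five concentrations for 48 hours. Endpoints are linearly interpolated between the surrounding concentrations. GI50 is the concentration that inhibits growth by half. At the TGI there is no net growth.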 Active and inactive are the calls of the source. No stated cut-off is given here; in the data, active means GI50 below about 0.43 µM; inactive means the rest.

As to `Cc1cc2c(cc1Cl)SC1=NN(C)S(=O)N1S2(=O)=O` (stereo not given), the GI50 in the experiment with KM12 colon, with SK-MEL-28 melanoma, with MDA-MB-435, with SR leukemia, with HCT-15 colon and in the experiment with NCI-H460 lung was above 100 µM in each case. Besides, the GI50 in the experiment on M14 melanoma, in the experiment on DU-145 prostate and in the experiment on SK-MEL-2 melanoma was above 100 µM throughout. Further, the TGI in the experiment with KM12 colon, in the experiment with SK-MEL-28 melanoma, in the experiment with MDA-MB-435, with SR leukemia, in the experiment with HCT-15 colon and in the experiment with NCI-H460 lung was above 100 µM each time. In addition, the TGI in the experiment on M14 melanoma, in the experiment on DU-145 prostate and in the experiment with SK-MEL-2 melanoma was above 100 µM each time.
As to `CC1CN1C(=O)NCCCCCCNC(=O)N1CC1C` (stereo not given), the TGI was above 100 µM in the experiment with KM12 colon; above 100 µM with SK-MEL-28 melanoma; above 100 µM in the experiment on MDA-MB-435; 60.2 µM in the experiment on SR leukemia; above 100 µM in the experiment on HCT-15 colon; above 66.6 µM in the experiment on NCI-H460 lung. Besides, the TGI in the experiment with M14 melanoma, with DU-145 prostate and in the experiment on SK-MEL-2 melanoma was above 100 µM each time.
As for `COc1ccc(C(=O)C#Cc2cnc(OC)nc2OC)cc1`, the GI50 in the experiment on KM12 colon was 56100 µM; with SK-MEL-28 melanoma it was 89800 µM; with MDA-MB-435 it was 28200 µM; in the experiment on SR leukemia, 12500 µM; in the experiment with HCT-15 colon it was 17200 µM; in the experiment on M14 melanoma, 27900 µM. Moreover, the GI50 in the experiment on SK-MEL-2 melanoma is 36100 µM. For the same molecule, the TGI with KM12 colon stood at 11.6 µM; in the experiment with SK-MEL-28 melanoma it was 3.47 µM; in the experiment on SR leukemia it was 43100 µM; in the experiment on NCI-H460 lung, 10.8 µM; in the experiment on M14 melanoma, 2.64 µM; in the experiment with DU-145 prostate, 4.86 µM. Besides, the result in the experiment with NCI-H460 lung and in the experiment on DU-145 prostate was inactive.
`O=C(O)COCC(=O)N(CCOCCN(Cc1ccccc1)C(=O)COCC(=O)O)Cc1ccccc1`: the TGI in the experiment with KM12 colon, in the experiment on SK-MEL-28 melanoma, in the experiment with MDA-MB-435, in the experiment with SR leukemia, in the experiment with HCT-15 colon and with NCI-H460 lung was above 100 µM throughout. Besides, the TGI in the experiment with M14 melanoma, in the experiment with DU-145 prostate and in the experiment with SK-MEL-2 melanoma was above 100 µM throughout.
For the molecule `N#CSC1CCCCNC1=O` (stereo not given), the TGI with KM12 colon came to 31.3 µM; with SK-MEL-28 melanoma, 28.1 µM; with MDA-MB-435, 34.8 µM; in the experiment on SR leukemia it was 38.9 µM; in the experiment on HCT-15 colon, 28.6 µM; in the experiment with NCI-H460 lung, 28.7 µM. Further, the TGI in the experiment on M14 melanoma is 39.3 µM; in the experiment with DU-145 prostate, 32.8 µM; with SK-MEL-2 melanoma, 27 µM.
Regarding `COc1cc(C(=O)CBr)c(OC)cc1C`, the TGI in the experiment on KM12 colon, with SK-MEL-28 melanoma, in the experiment on MDA-MB-435, with SR leukemia, with HCT-15 colon and with M14 melanoma was above 100 µM throughout. Further, the TGI in the experiment on DU-145 prostate and in the experiment with SK-MEL-2 melanoma was above 100 µM throughout.
Consider `COc1ccc(-c2nc(-c3nc4ccc(Cl)cc4[nH]3)c3ccccn23)cc1`, for which the GI50 was 7.68 µM in the experiment with KM12 colon; 2.14 µM with SK-MEL-28 melanoma; 2.3 µM in the experiment on MDA-MB-435; 12.6 µM in the experiment with SR leukemia; 3.89 µM with HCT-15 colon; 2.23 µM in the experiment on NCI-H460 lung. Moreover, the results for the GI50 in the experiment with M14 melanoma, in the experiment on DU-145 prostate and in the experiment with SK-MEL-2 melanoma were 4.24 µM, 3.27 µM and 2.71 µM, respectively. In addition, the TGI in the experiment with KM12 colon is above 100 µM; in the experiment with SK-MEL-28 melanoma it was 5.34 µM; with MDA-MB-435, 7.64 µM; in the experiment on SR leukemia it was above 100 µM; in the experiment with HCT-15 colon it was 64.3 µM; in the experiment on NCI-H460 lung it was 5.29 µM. The TGI in the experiment with M14 melanoma came out at 18.4 µM; with DU-145 prostate it was 11.1 µM; in the experiment with SK-MEL-2 melanoma, 8.76 µM.
For `CC(C)(CO)N1CCN(C(=S)Nc2ccccc2)CC1`, the TGI in the experiment with KM12 colon, in the experiment on SK-MEL-28 melanoma, with MDA-MB-435, in the experiment on HCT-15 colon, in the experiment with NCI-H460 lung and in the experiment with M14 melanoma was above 100 µM in each case. Further, the TGI in the experiment on SK-MEL-2 melanoma was above 100 µM.
In the case of `Cc1cc(-c2cnn3c(NCC4CC(C)(O)C4)cc(Oc4cccnc4)nc23)ccc1C(=O)NC1CC1` (stereo not given), the GI50 in the experiment with SR leukemia was 0.525 µM; with HCT-15 colon it was 0.706 µM; in the experiment with NCI-H460 lung, 0.585 µM; with M14 melanoma, 1.44 µM; with DU-145 prostate, 2.26 µM; in the experiment with SK-MEL-2 melanoma, 1.95 µM. Moreover, the TGI in the experiment on SR leukemia, with HCT-15 colon, in the experiment with NCI-H460 lung, in the experiment with M14 melanoma, with DU-145 prostate and with SK-MEL-2 melanoma was above 100 µM each time.
As for `CCOC(=S)SSSC(=S)OCC`, the TGI with KM12 colon was above 100 µM; in the experiment with SK-MEL-28 melanoma, above 100 µM; with MDA-MB-435 it was above 100 µM; with SR leukemia, 42.1 µM; in the experiment on HCT-15 colon it was 46.8 µM; in the experiment on NCI-H460 lung it was above 100 µM. The TGI with M14 melanoma and in the experiment with DU-145 prostate was above 100 µM in each case.
As to `CC1(C)OC2=C(CC1Br)C(=O)C(=O)c1ccccc12` (stereo not given), the GI50 was 1.75 µM with KM12 colon; 1.82 µM in the experiment on SK-MEL-28 melanoma; 1.69 µM in the experiment with MDA-MB-435; 3.97 µM in the experiment on SR leukemia; 2.08 µM in the experiment on NCI-H460 lung; 1.9 µM in the experiment with M14 melanoma. Moreover, the values for the GI50 in the experiment with DU-145 prostate and in the experiment with SK-MEL-2 melanoma were 1.67 µM and 1.65 µM, respectively. In addition, the TGI in the experiment on KM12 colon stood at 3.19 µM; with SK-MEL-28 melanoma, 3.24 µM; in the experiment on MDA-MB-435, 3.35 µM; with SR leukemia it was 7.44 µM; in the experiment with NCI-H460 lung it was 3.96 µM; in the experiment with M14 melanoma, 3.64 µM. Also, the TGI in the experiment on DU-145 prostate turned out to be 3.05 µM; in the experiment on SK-MEL-2 melanoma it was 3.57 µM.
For `COc1ccc(-c2onc(N)c2-c2cc(OC)c3c(c2)OCO3)cc1`, the GI50 in the experiment with KM12 colon is 1.85 µM; with SK-MEL-28 melanoma it was 3.84 µM; with MDA-MB-435 it was 0.29 µM; in the experiment with SR leukemia it was 0.534 µM; with HCT-15 colon it was 0.958 µM; in the experiment with NCI-H460 lung it was 3 µM. In addition, the GI50 was 1.49 µM in the experiment on M14 melanoma and 3.57 µM with DU-145 prostate. Moreover, the TGI with KM12 colon is above 75.4 µM; in the experiment with SK-MEL-28 melanoma, above 100 µM; with MDA-MB-435, 1.13 µM; in the experiment on SR leukemia it was above 100 µM; in the experiment on HCT-15 colon it was above 100 µM; in the experiment on NCI-H460 lung it was 21.1 µM. Further, the TGI in the experiment with M14 melanoma is 7.28 µM; in the experiment with DU-145 prostate, above 59.3 µM.
